Patent publication US20260317340A1, “COMPOUNDS, COMPOSITIONS, AND METHODS OF TREATING DISORDERS” (Chengdu Anticancer Bioscience, Ltd., priority 2023, published 2026)
Where two headings read alike, the source gives them in different places.

Experiments:
[1] = Tumor growth inhibition, CT26 allograft in BAL B/c mice; format: in vivo, mouse tumor cell line in BAL B/c mice; conditions: oral, 20 days, 30% PEG300
Method: (§1) Six- to seven-week-old female BAL B/c nude mice were used in the human cancer cell line NCI-H460, which was derived from a lung cancer patient. Six- to seven-week-old female BAL B/c mice were used in the mouse […] cell line CT26 allograft models. 100 μL cell suspensions containing one million cells with […] (Corning, Cat. No. 354254) were implanted subcutaneously into the right flank of mice. Mice were monitored daily for well-being and weighed twice weekly. Caliper measurements of tumor sizes began when tumors became visible. Tumor volume (TV) was calculated by measuring two perpendicular diameters using the following formula: (L×W2)/2 in which L and W refer to the length and width of a tumor, respectively. When tumors reached an average size of 100 mm3, mice were first ranked according to tumor size and divided into “n” cohorts with X mice in each cohort. Each cohort was then sorted into 1 to X groups according to the random numbers size order generated by the RAND 0)function in Excel. In this way, the mice were randomized into X groups (n=4-6). Then the mice were orally administrated with vehicle (30% PEG 300) or indicated compounds at a dose volume of 5 mL/kg in a double-blinded manner. Oral administration was chosen because this is the intended route of use in the clinic. In all cases, no tumor measurement data or animals were excluded from the data analysis. Percentage of tumor growth inhibition (TGI) was calculated using the following formula: % TGI=average 100×[1−(final TV−initial TV of treatment group)/(final TV−initial TV of control group)]. As set forth in table 3 below, an values of greater than or equal to 35% and less than or equal to 45% […] is marked “C”; a value greater than 45% and less than or equal to 55% is marked “B”; a value greater than 55% and less than or equal to 70% is marked “A”; and […]

RPE-Neo or RPE-MYC cells = assay: MTT assay of cellular proliferation (proliferative arrest); format: cell-based; conditions: read-out: Min. Effective conc. for Proliferative arrest (>50%)
[2] = tested on: RPE-Neo or RPE-MYC or RPE-MYC expressing an EGFP-Histone 2B fusion protein; assay: Phenotypic screening assay: arrest in mitosis, change in DNA content (polyploidy), cell death; format: cell-based; conditions: 20 nM to 20 μM, 24, 48 or 72 hours
Summary of the method: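 Compound exposure from 20 nM to 20 μM in RPE lines (Neo, MYC, or MYC with EGFP-histone H2B), seeded 18-24 h earlier; imaging at 24, 48 or 72 h read mitotic arrest or altered DNA content, with MTT for proliferation. Results reported as A–D range categories.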

[3] = tested on: human cancer cell line NCI-H460; assay: Tumor growth inhibition, NCI-H460 tumors in BAL B/c nude mice; format: in vivo, human tumor cell line in BAL B/c nude mice; conditions: oral, 4 days-on, 3 days-off, 30% PEG300
Method: as §1

[4] = read-out: Min. Effective conc. for Along with Cell Death
[5] = ≥5%, read-out: Min. Effective conc. for Mitotic Arrest (≥5%)
[6] = ≥5%, read-out: Min. Effective conc. for Polyploidy (≥5%)

For `COc1ccc(CN2C(=O)CC(c3ncc(C)o3)=Cc3ccc(-c4cnn(CC(C)(C)O)c4)cc32)cc1` [Compound 37, 8-(1-(2-hydroxy-2-methylpropyl)-1H-pyrazol-4-yl)-1-(4-methoxybenzyl)-4-(5-methyloxazol-2-yl)-1,3-dihydro-2H-benzo[b]azepin-2-one], the TGI % ([1]; 8 mg/kg, 3 days-on, 4 days-off) was “B (greater than 45% and less than or equal to 55%)”, the minimal effective concentration (RPE-Neo or RPE-MYC cells) was 0.001 to 1 µM and the minimal effective concentration [2, 4] was 0.001 to 1 µM. The minimal effective concentration [2, 5] was 0.001 to 1 µM, the minimal effective concentration [2, 6] was 0.001 to 1 µM and the TGI % ([3]; 8 mg/kg, 20 days) was “A (greater than 55% and less than or equal to 70%)”.

For `COc1ccc(CN2C(=O)CC(c3ncc(C)o3)=Cc3ccc(-c4cnn(CCN5CCOCC5)c4)cc32)cc1` [Compound 38, 1-(4-methoxybenzyl)-4-(5-methyloxazol-2-yl)-8-(1-(2-morpholinoethyl)-1H-pyrazol-4-yl)-1,3-dihydro-2H-benzo[b]azepin-2-one], the minimal effective concentration (RPE-Neo or RPE-MYC cells) was 0.001 to 1 µM, the minimal effective concentration [2, 4] was 0.001 to 1 µM and the minimal effective concentration [2, 5] was 0.001 to 1 µM. The minimal effective concentration [2, 6] was 0.001 to 1 µM and the TGI % ([3]; 36 mg/kg, 20 days) was “B (greater than 45% and less than or equal to 55%)”.

`COc1ccc(CN2C(=O)CC(c3ncc(C)o3)=Cc3ccc(-c4ccc(N)nc4)cc32)cc1` [Compound 42, 8-(6-aminopyridin-3-yl)-1-(4-methoxybenzyl)-4-(5-methyloxazol-2-yl)-1,3-dihydro-2H-benzo[b]azepin-2-one] gave a minimal effective concentration (RPE-Neo or RPE-MYC cells) of 0.001 to 1 µM, a minimal effective concentration [2, 4] of 0.001 to 1 µM and a minimal effective concentration [2, 5] of 0.001 to 1 µM. The minimal effective concentration [2, 6] was 0.001 to 1 µM and the TGI % ([3]; 36 mg/kg, 13 days) was “C (greater than or equal to 35% and less than or equal to 45% μM)”.

Work on `COc1ccc(CN2C(=O)CC(c3ncc(C)o3)=Cc3ccc(-c4ccc(=O)n(C)c4)cc32)cc1` [Compound 45, 1-(4-methoxybenzyl)-8-(1-methyl-6-oxo-1,6-dihydropyridin-3-yl)-4-(5-methyloxazol-2-yl)-1,3-dihydro-2H-benzo[b]azepin-2-one] yielded a minimal effective concentration (RPE-Neo or RPE-MYC cells) of 0.001 to 1 µM, a minimal effective concentration [2, 4] of 0.001 to 1 µM and a minimal effective concentration [2, 5] of 0.001 to 1 µM. For the same compound, the minimal effective concentration [2, 6] was 0.001 to 1 µM and the TGI % ([3]; 36 mg/kg, 20 days) was “A (greater than 55% and less than or equal to 70%)”.

`COCCn1cc(-c2ccc3c(c2)N(Cc2ccc(OC)cc2)C(=O)CC(c2ncc(C)o2)=C3)cn1` [Compound 51, 1-(4-methoxybenzyl)-8-(1-(2-methoxyethyl)-1H-pyrazol-4-yl)-4-(5-methyloxazol-2-yl)-1,3-dihydro-2H-benzo[b]azepin-2-one] showed a minimal effective concentration (RPE-Neo or RPE-MYC cells) of 0.001 to 1 µM, a minimal effective concentration [2, 4] of 0.001 to 1 µM and a minimal effective concentration [2, 5] of 0.001 to 1 µM. The minimal effective concentration [2, 6] was 0.001 to 1 µM and the TGI % ([3]; 15 mg/kg, 29 days) was “A (greater than 55% and less than or equal to 70%)”.

With `COc1ccc(CN2C(=O)CC(c3ncc(C)o3)=Cc3ccc(-c4cnn(CC5CC5)c4)cc32)cc1` [Compound 53, 8-(1-(cyclopropylmethyl)-1H-pyrazol-4-yl)-1-(4-methoxybenzyl)-4-(5-methyloxazol-2-yl)-1,3-dihydro-2H-benzo[b]azepin-2-one] the minimal effective concentration (RPE-Neo or RPE-MYC cells) was 0.001 to 1 µM, the minimal effective concentration [2, 4] was 0.001 to 1 µM and the minimal effective concentration [2, 5] was 0.001 to 1 µM. The minimal effective concentration [2, 6] was 0.001 to 1 µM and the TGI % ([3]; 40 mg/kg, 20 days) was “C (greater than or equal to 35% and less than or equal to 45% μM)”.

In the case of `COc1ccc(CN2C(=O)CC(c3ncc(C)o3)=Cc3ccc(-c4cnn(C5COC5)c4)cc32)cc1` [Compound 54, 1-(4-Methoxybenzyl)-4-(5-methyloxazol-2-yl)-8-(1-(oxetan-3-yl)-1H-pyrazol-4-yl)-1,3-dihydro-2H-benzo[b]azepin-2-one], the minimal effective concentration (RPE-Neo or RPE-MYC cells) is reported as 0.001 to 1 µM, the minimal effective concentration [2, 4] is reported as 0.001 to 1 µM and the minimal effective concentration [2, 5] is reported as 0.001 to 1 µM. The minimal effective concentration [2, 6] was 0.001 to 1 µM and the TGI % ([3]; 50 mg/kg, 20 days) was “C (greater than or equal to 35% and less than or equal to 45% μM)”.

Compound `COCCCn1cc(-c2ccc3c(c2)N(Cc2ccc(OC)cc2)C(=O)CC(c2ncc(C)o2)=C3)cn1` [Compound 57, 1-(4-Methoxybenzyl)-8-(1-(3-methoxypropyl)-1H-pyrazol-4-yl)-4-(5-methyloxazol-2-yl)-1,3-dihydro-2H-benzo[b]azepin-2-one] has a minimal effective concentration (RPE-Neo or RPE-MYC cells) of 0.001 to 1 µM, a minimal effective concentration [2, 4] of 0.001 to 1 µM and a minimal effective concentration [2, 5] of 0.001 to 1 µM. For the same compound, the minimal effective concentration [2, 6] was 0.001 to 1 µM and the TGI % ([3]; 80 mg/kg, 20 days) was “A (greater than 55% and less than or equal to 70%)”.

In the case of `COc1ccc(CN2C(=O)CC(c3ncc(C)o3)=Cc3ccc(-c4cnn(CC(C)O)c4)cc32)cc1` (centres unmarked) [Compound 61, 8-(1-(2-hydroxypropyl)-1H-pyrazol-4-yl)-1-(4-methoxybenzyl)-4-(5-methyloxazol-2-yl)-1,3-dihydro-2H-benzo[b]azepin-2-one], the TGI % ([1]; 10 mg/kg, 4 days-on, 3 days-off) is reported as “A (greater than 55% and less than or equal to 70%)”, the minimal effective concentration (RPE-Neo or RPE-MYC cells) is reported as 0.001 to 1 µM and the minimal effective concentration [2, 4] is reported as 0.001 to 1 µM. For the same compound, the minimal effective concentration [2, 5] was 0.001 to 1 µM and the minimal effective concentration [2, 6] was 0.001 to 1 µM.

For `COc1ccc(CN2C(=O)CC(c3nnc(C4CC4)o3)=Cc3ccc(-c4cnn(CC(C)(C)O)c4)cc32)cc1` [Compound 94, 4-(5-Cyclopropyl-1,3,4-oxadiazol-2-yl)-8-(1-(2-hydroxy-2-methylpropyl)-1H-pyrazol-4-yl)-1-(4-methoxybenzyl)-1,3-dihydro-2H-benzo[b]azepin-2-one], the TGI % ([1]; 8 mg/kg, 4 days-on, 3 days-off) was “B (greater than 45% and less than or equal to 55%)”, the minimal effective concentration (RPE-Neo or RPE-MYC cells) was 0.001 to 1 µM and the minimal effective concentration [2, 4] was 0.001 to 1 µM. The minimal effective concentration [2, 5] was 0.001 to 1 µM and the minimal effective concentration [2, 6] was 0.001 to 1 µM.

In the case of `COc1ccc(CN2C(=O)CC(c3cnco3)=Cc3ccc(-c4cnn(CC(C)(C)O)c4)cc32)cc1` [Compound 96, 8-(1-(2-Hydroxy-2-methylpropyl)-1H-pyrazol-4-yl)-1-(4-methoxybenzyl)-4-(oxazol-5-yl)-1,3-dihydro-2H-benzo[b]azepin-2-one], the TGI % ([1]; 20 mg/kg, 4 days-on, 3 days-off) is reported as “A (greater than 55% and less than or equal to 70%)”, the minimal effective concentration (RPE-Neo or RPE-MYC cells) is reported as 0.001 to 1 µM and the minimal effective concentration [2, 4] is reported as 0.001 to 1 µM. The minimal effective concentration [2, 5] was 0.001 to 1 µM and the minimal effective concentration [2, 6] was 0.001 to 1 µM.
